In patent US20080267935A1, “AraC in combination with a cytokine-secreting cell and methods of use thereof” (Cell Genesys, Inc., priority 2007, published 2008):
Where two headings read alike, the source gives them in different places.

What was measured:
[1] = set-up: species or system mice; settings: mouse, in vivo
Procedure: Hematologic and Phenotypic Analysis. Mice were injected intraperitoneally with AraC using the treatment regimen described below. Peripheral blood was collected by retro-orbital puncture into EDTA-coated capillary tubes on days 1, 2, 3, 4, 6, 8 and 11. Hematologic analysis was performed by IDEXX pre-clinical Research Services (West Sacramento, Calif.).
Prior to conducting the in vivo efficacy studies in the leukemia tumor models, the hematological toxicity of AraC was determined. The animals received three i.p. injections of 100 mg/kg AraC (volume of injection: 200 μl) in 10 hour-increments. This treatment regimen is equal to a total dose of 900 mg/m^2 and is within the total dose range of 700 to 1400 mg/m^2 used clinically in human patients. Neutropenia and lymphopenia are known to be the primary dose-limiting toxicity observed in patients, so AraC treated mice were monitored for absolute neutrophil and lymphocyte counts. The results are shown in FIG. 2A and FIG. 2B, respectively. After the three AraC administrations, peripheral blood was collected by retro-orbital puncture into EDTA-coated capillary tubes on days 1, 2, 3, 4, 6, 8 and 11 and analyzed for neutropenia. The absolute neutrophil count in the animals dropped to 45 neutrophils/μl, by day 4, rebounded to control level at 600 neutrophils/μl, by day 6 and remained at a steady level of around 600 neutrophils/μl, thereafter (FIG. 2A), which is similar to untreated control animals.

[2] = system: Acute myeloid leukemias (AMLs); settings: cited from earlier work; for complete remissions: remission induction
C1498-luc tumor cells = test: C1498-luc acute myeloid leukemia tumor model, survival and tumor burden; type: in vivo, C57BL/6 mice
Procedure: To assess the in vivo progression of systemic disease, 2.5×10^4 of C1498-luc cells were injected intravenously via tail vein into C57BL/6 mice, their syngeneic host, and the mice were examined every few days for the presence of luminescent signal via live imaging (FIG. 1A). […] A total photon count of 5×10^8 from an individual tumor bearing animal was used as the end point of life expectancy.
The efficacy of the combination of cytosine arabinoside (AraC) and GM-CSF secreting cells was evaluated by carrying out animal studies in the syngeneic C1498-luc tumor model. In this model, following challenge with C1498-luc tumor cells as described above, the mice were randomized into control and individual treatment groups, as detailed in the examples. For anti-tumor memory assessment, animals which had previously received AraC in combination with GM-CSF-secreting cells were rechallenged with a lethal dose of C1498-luc cells approximately 100 days after receiving the combination therapy. A typical study in the C1498-luc tumor model makes use of at least 6 and generally 10-15 mice per group in order to obtain statistically significant results. Statistical significance is evaluated using the Student's t-test.
Tumor Model. Female C57Bl/6 mice were challenged with C1498-luc cells via intra-tail-vein injections with 2.5×10^4 inocula. The mice were prepared for in vivo bioluminescence imaging 5 to 10 minutes post injection to confirm the initial trafficking of the tumor cells from tail vein to the lungs. Briefly, the mice were injected i.p. with 1.5 mg/g luciferin substrate (Xenogen Corp., Alameda, Calif.). Fifteen minutes later, the mice were anesthetized for in vivo bioluminescence imaging analysis. […] The animals were monitored by in vivo imaging every 5 to 7 days throughout the study to monitor the systemic progression of the tumor. Individual animals were euthanized when in vivo total photon counts exceeded 5×10^8 and/or when determined to be clinically paralyzed.
In Vivo Treatment. […]

Q: What does the source list for Nc1ccn([C@@H]2O[C@H](CO)[C@@H](O)[C@@H]2O)c(=O)n1 [AraC, 1-β-D-arabinofuranosylcytosine]?
A: absolute neutrophil count [1]: 600 neutrophils/μl; drop of lymphocyte counts [1]: greater than 40%; absolute neutrophil count ([1]; ip, 100 mg/kg): 45 neutrophils/μl; recovery of lymphocyte counts ([1]; ip, 100 mg/kg): rebounded by day 6; dose-limiting toxicities ([2]; patients): severe neutropenia and lymphopenia; complete remissions ([2]; patients older than 60): −50%; complete remissions ([2]; younger adults): ~75%; mice surviving for longer than 150 days post-challenge (C1498-luc tumor cells; C1498-luc tumor bearing mice): 30%; Number of tumor free animals 150 days post challenge (C1498-luc tumor cells; monotherapy): 0/10; Median Survival Time (MST) (C1498-luc tumor cells; monotherapy, AraC 3 i.p. injections of 100 mg/kg one day post challenge, or 1×10^6 irradiated C1498.GM s.c. day 7): 61 days
